Reference: ChEMBL document CHEMBL1201862, “PubChem BioAssay data set” (2004)
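Grown in 96-well plates, cells were treated for 48 hours with each compound at five concentrations. Insufficient inhibition: endpoint recorded as highest concentration tested. Abbreviation: GI50, concentration required for 50% inhibition of growth.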 Activity calls are given as the source filed them. Rule as the data show it: active = GI50 up to about 1.1 µM and inactive = higher.

Key:
Test in all cases: DTP human tumour cell line panel, 48 h
OVCAR-3 = system: OVCAR-3
NCI-H23 = system: NCI-H23
M14 = system: M14
RXF 393 = system: RXF 393
PC-3 = system: PC-3
MDA-N = system: MDA-N
SNB-19 = system: SNB-19
HCT-116 = system: HCT-116
OVCAR-5 = system: OVCAR-5
LOX IMVI = system: LOX IMVI
786-0 = system: 786-0
SF-539 = system: SF-539
A549 = system: A549
HL-60 = system: HL-60
HCC 2998 = system: HCC 2998
SK-MEL-28 = system: SK-MEL-28
MDA-MB-435 = system: MDA-MB-435
HOP-62 = system: HOP-62
SF-268 = system: SF-268
UACC-62 = system: UACC-62
SK-MEL-2 = system: SK-MEL-2
SK-OV-3 = system: SK-OV-3
BT-549 = system: BT-549
NCI-H522 = system: NCI-H522
ACHN = system: ACHN
CCRF-CEM = system: CCRF-CEM
HCT-15 = system: HCT-15
RPMI-8226 = system: RPMI-8226
NCI-H226 = system: NCI-H226
Hs-578T = system: Hs-578T
OVCAR-8 = system: OVCAR-8
DU-145 = system: DU-145
SN12C = system: SN12C
SW-620 = system: SW-620
KM12 = system: KM12
IGROV-1 = system: IGROV-1
SF-295 = system: SF-295
TK-10 = system: TK-10
K562 = system: K562
U-251 = system: U-251
EKVX = system: EKVX
MOLT-4 = system: MOLT-4
SK-MEL-5 = system: SK-MEL-5
HT-29 = system: HT-29
SNB-75 = system: SNB-75
MCF7 = system: MCF7
UACC-257 = system: UACC-257
UO-31 = system: UO-31
NCI/ADR-RES = system: NCI/ADR-RES
Malme-3M = system: Malme-3M
OVCAR-4 = system: OVCAR-4
NCI-H460 = system: NCI-H460
A498 = system: A498
COLO 205 = system: COLO 205
CAKI-1 = system: CAKI-1
T47D = system: T47D
SR = system: SR
MDA-MB-231 = system: MDA-MB-231
HOP-92 = system: HOP-92

Structure (SMILES): CC(C)CCc1c(Cl)nc(Cl)nc1Cl
- GI50 (OVCAR-3): 11.9 µM (inactive)
- GI50 (NCI-H23): 8.97 µM (inactive)
- GI50 (M14): 3.61 µM (inactive)
- GI50 (RXF 393): 3.89 µM (inactive)
- GI50 (PC-3): 13.6 µM (inactive)
- GI50 (MDA-N): 3.98 µM (inactive)
- GI50 (SNB-19): 22 µM (inactive)
- GI50 (HCT-116): 2.48 µM (inactive)
- GI50 (OVCAR-5): 28.1 µM (inactive)
- GI50 (LOX IMVI): 0.726 µM (active)
- GI50 (786-0): 20.3 µM (inactive)
- GI50 (SF-539): 24.8 µM (inactive)
- GI50 (A549): 21.7 µM (inactive)
- GI50 (HL-60): > 100 µM (inactive)
- GI50 (HCC 2998): 16.5 µM (inactive)
- GI50 (SK-MEL-28): 9.04 µM (inactive)
- GI50 (MDA-MB-435): 6.18 µM (inactive)
- GI50 (HOP-62): 16.4 µM (inactive)
- GI50 (SF-268): 17.6 µM (inactive)
- GI50 (UACC-62): 12 µM (inactive)
- GI50 (SK-MEL-2): 16 µM (inactive)
- GI50 (SK-OV-3): 17 µM (inactive)
- GI50 (BT-549): 4.1 µM (inactive)
- GI50 (NCI-H522): 2.71 µM (inactive)
- GI50 (ACHN): 21.2 µM (inactive)
- GI50 (CCRF-CEM): 0.33 µM (active)
- GI50 (HCT-15): 3.47 µM
- GI50 (RPMI-8226): 30.7 µM (inactive)
- GI50 (NCI-H226): 4.44 µM (inactive)
- GI50 (Hs-578T): 17.9 µM (inactive)
- GI50 (OVCAR-8): > 10 µM (inactive)
- GI50 (DU-145): 17.3 µM (inactive)
- GI50 (SN12C): 10.7 µM (inactive)
- GI50 (SW-620): 1.4 µM (inactive)
- GI50 (KM12): > 10 µM (inactive)
- GI50 (IGROV-1): 18 µM (inactive)
- GI50 (SF-295): 18.1 µM (inactive)
- GI50 (TK-10): 21.1 µM (inactive)
- GI50 (K562): 3.41 µM (inactive)
- GI50 (U-251): 11.8 µM (inactive)
- GI50 (EKVX): 26.2 µM (inactive)
- GI50 (MOLT-4): 0.783 µM (active)
- GI50 (SK-MEL-5): 4.07 µM (inactive)
- GI50 (HT-29): 12.8 µM (inactive)
- GI50 (SNB-75): 10 µM (inactive)
- GI50 (MCF7): 13.8 µM (inactive)
- GI50 (UACC-257): 16.7 µM (inactive)
- GI50 (UO-31): 20.1 µM (inactive)
- GI50 (NCI/ADR-RES): 28.2 µM (inactive)
- GI50 (Malme-3M): 6.12 µM (inactive)
- GI50 (OVCAR-4): 19.7 µM (inactive)
- GI50 (NCI-H460): 15.5 µM (inactive)

Structure (SMILES): CC1CCCc2c(CC3CC(=O)NC(=O)C3)nc(N)nc21 (stereo not given)
- GI50 (OVCAR-3): > 100 µM (inactive)
- GI50 (NCI-H23): > 100 µM (inactive)
- GI50 (A498): > 100 µM (inactive)
- GI50 (M14): > 100 µM (inactive)
- GI50 (RXF 393): > 100 µM (inactive)
- GI50 (COLO 205): > 100 µM (inactive)
- GI50 (PC-3): > 100 µM (inactive)
- GI50 (MDA-N): > 100 µM (inactive)
- GI50 (HCT-116): > 100 µM (inactive)
- GI50 (OVCAR-5): > 100 µM (inactive)
- GI50 (LOX IMVI): > 100 µM (inactive)
- GI50 (786-0): > 100 µM (inactive)
- GI50 (SF-539): > 100 µM (inactive)
- GI50 (A549): > 100 µM (inactive)
- GI50 (HL-60): 2.21 µM (inactive)
- GI50 (CAKI-1): > 100 µM (inactive)
- GI50 (T47D): > 100 µM (inactive)
- GI50 (SR): > 100 µM (inactive)
- GI50 (HCC 2998): > 100 µM (inactive)
- GI50 (SK-MEL-28): > 100 µM (inactive)
- GI50 (MDA-MB-435): > 100 µM (inactive)
- GI50 (HOP-62): > 100 µM (inactive)
- GI50 (SF-268): > 100 µM (inactive)
- GI50 (UACC-62): > 100 µM (inactive)
- GI50 (SK-MEL-2): > 100 µM (inactive)
- GI50 (SK-OV-3): > 100 µM (inactive)
- GI50 (MDA-MB-231): > 100 µM (inactive)
- GI50 (BT-549): > 100 µM (inactive)
- GI50 (CCRF-CEM): > 100 µM (inactive)
- GI50 (HCT-15): > 100 µM
- GI50 (RPMI-8226): > 100 µM (inactive)
- GI50 (NCI-H226): > 100 µM (inactive)
- GI50 (OVCAR-8): > 100 µM (inactive)
- GI50 (DU-145): > 100 µM (inactive)
- GI50 (SN12C): > 100 µM (inactive)
- GI50 (SW-620): > 100 µM (inactive)
- GI50 (KM12): > 100 µM (inactive)
- GI50 (HOP-92): > 100 µM (inactive)
- GI50 (IGROV-1): > 100 µM (inactive)
- GI50 (SF-295): > 100 µM (inactive)
- GI50 (TK-10): > 100 µM (inactive)
- GI50 (K562): > 100 µM (inactive)
- GI50 (U-251): > 100 µM (inactive)
- GI50 (EKVX): > 100 µM (inactive)
- GI50 (MOLT-4): > 100 µM (inactive)
- GI50 (SK-MEL-5): > 100 µM (inactive)
- GI50 (HT-29): > 100 µM (inactive)
- GI50 (SNB-75): 95.7 µM (inactive)
- GI50 (MCF7): > 100 µM (inactive)
- GI50 (UACC-257): > 100 µM (inactive)
- GI50 (NCI/ADR-RES): > 100 µM (inactive)
- GI50 (Malme-3M): > 100 µM (inactive)
- GI50 (OVCAR-4): > 100 µM (inactive)
